Results: the Deep4Chem optical property database

Assay: solvent given as SMILES

Cc1cc(C)c(B(c2ccc(C#Cc3cc4ccc5cc(C#Cc6ccc(B(c7c(C)cc(C)cc7C)c7c(C)cc(C)cc7C)cc6)cc6ccc(c3)c4c56)cc2)c2c(C)cc(C)cc2C)c(C)c1
fluorescence lifetime (in Cc1ccccc1): 58 ns

CCN(CC)c1ccc2cc(-c3nc4ccccc4n3C)c(=O)oc2c1
fluorescence lifetime (in CC#N): 2.8 ns

COc1cc(/C=C2/SC(=O)NC2=O)ccc1O
fluorescence lifetime (in C1CCCCC1): 0.61 ns
fluorescence lifetime (in C1COCCO1): 1.3 ns
fluorescence lifetime (in CC#N): 0.291 ns
fluorescence lifetime (in CN(C)C=O): 4.11 ns
fluorescence lifetime (in CO): 0.25 ns
fluorescence lifetime (in O): 0.281 ns
fluorescence lifetime (in OCC(O)CO): 5.79 ns
fluorescence lifetime (in OCCO): 2.52 ns

c1ccc(/C(=C(\c2ccccc2)c2cc(-c3ccccc3)ccc2-c2ccccc2)c2cc(-c3ccccc3)ccc2-c2ccccc2)cc1
fluorescence lifetime (in C1CCOC1): 6.5 ns

CN1C(=CC=Cc2nc3nc4ccccc4nc3s2)C(C)(C)c2ccccc21
fluorescence lifetime (in CCCCCCC(C)O): 1.04 ns
fluorescence lifetime (in CCOC(C)=O): 0.92 ns
fluorescence lifetime (in CO): 0.18 ns
fluorescence lifetime (in CS(C)=O): 1.04 ns
fluorescence lifetime (in Cc1ccccc1): 0.11 ns
fluorescence lifetime (in ClC(Cl)Cl): 1.08 ns
fluorescence lifetime (in ClCCl): 0.99 ns

CC(C)(C)NC(=O)c1ccc(-c2ccc(N3c4ccccc4Oc4ccccc43)cc2)c2ccc3c4ccc(F)cc4c4cc(F)ccc4c3c12
fluorescence lifetime (in ClCCl): 89.3 ns

COC(=O)c1noc(-c2ccccc2)c1Cl
fluorescence lifetime (in C1CCCCC1): 0.67 ns

CN(C)c1ccc2cc3ccc(=[N+](C)C)cc-3oc2c1
fluorescence lifetime (in CCO): 2.26 ns
fluorescence lifetime (in O): 1.86 ns

CCn1c2ccsc2c2c3nsnc3c3c4sccc4n(CC)c3c21
fluorescence lifetime (in C1CCOC1): 23.7 ns
fluorescence lifetime (in CCOC(C)=O): 24.2 ns
fluorescence lifetime (in CN(C)C=O): 22.1 ns
fluorescence lifetime (in Cc1ccccc1): 19.4 ns
fluorescence lifetime (in ClCCl): 16.6 ns

COc1cc2c(cc1-c1ccsc1)Cc1c3c(c4c(c1-2)-c1cc(OC)c(-c2ccsc2)cc1C4)C(=O)N(CCC(C)C)C3=O
fluorescence lifetime (in C1CCOC1): 3.42 ns

CCCCn1c2ccc(C#Cc3cccs3)cc2c2c1c1c3ccc(C#Cc4cccs4)cc3n(CCCC)c1c1c3ccc(C#Cc4cccs4)cc3n(CCCC)c21
fluorescence lifetime (in C1CCOC1): 3.8 ns

COC(=O)/C=C/c1ccc2ccc3cccc4ccc1c2c34
fluorescence lifetime (in C1CCOC1): 2.8 ns
fluorescence lifetime (in CC#N): 2.4 ns
fluorescence lifetime (in CC(C)=O): 2.6 ns

c1ccc(-c2cc(-c3ccc4ccc5c(-c6ccnc(-c7ccccn7)c6)ccc6ccc3c4c65)ccn2)nc1
fluorescence lifetime (in C1CCOC1): 2 ns
fluorescence lifetime (in CC#N): 2.2 ns
fluorescence lifetime (in CCC#N): 2.2 ns
fluorescence lifetime (in CCCC#N): 2.1 ns
fluorescence lifetime (in CCCCCC): 2.6 ns
fluorescence lifetime (in CCCO): 2.1 ns
fluorescence lifetime (in CCO): 2.1 ns
fluorescence lifetime (in CO): 1.7 ns
fluorescence lifetime (in Cc1ccccc1): 1.8 ns

COc1ccc(C2=C(c3ccccc3)C(c3ccccc3)=[N+]3C2=Nc2c(-c4ccc(OC)cc4)c(-c4ccccc4)c(-c4ccccc4)n2[B-]3(F)F)cc1
fluorescence lifetime (in Cc1ccccc1): 0.26 ns

CCCCCCCCCCCCOc1ccc(C#Cc2ccc(C#Cc3ccc(OCCCCCCCCCCCC)c(OCCCCCCCCCCCC)c3)c3nc4c5ccccc5c5ccccc5c4nc23)cc1OCCCCCCCCCCCC
fluorescence lifetime (in C1CCOC1): 8.22 ns
fluorescence lifetime (in Cc1ccccc1): 7.13 ns
fluorescence lifetime (in ClCCl): 8.62 ns

CCCCCCCCCCCCCCCCOc1cc(C#Cc2ccc3ccccc3c2)c(OCCCCCCCCCCCCCCCC)cc1C#Cc1ccc(C=C(C#N)C#N)cc1
fluorescence lifetime (in Brc1ccccc1): 2.82 ns
fluorescence lifetime (in C1CCCCC1): 1.92 ns
fluorescence lifetime (in C1CCOC1): 0.98 ns
fluorescence lifetime (in C1COCCO1): 3.1 ns
fluorescence lifetime (in CCCCCC): 1.97 ns
fluorescence lifetime (in CCCCCCCCO): 0.62 ns
fluorescence lifetime (in CCCCOCCCC): 2.73 ns
fluorescence lifetime (in CCOC(C)=O): 1.05 ns
fluorescence lifetime (in CCOCC): 3.33 ns
fluorescence lifetime (in Cc1ccccc1): 2.53 ns
fluorescence lifetime (in ClC(Cl)(Cl)Cl): 1.94 ns
fluorescence lifetime (in ClC(Cl)Cl): 2.26 ns
fluorescence lifetime (in ClCCl): 0.63 ns

CC1(C)c2ccccc2N(c2ccc(-c3ncc(C#N)cn3)cc2)c2ccccc21
fluorescence lifetime (in N#Cc1ccc2c(c1)c1ccccc1n2-c1cccc(-n2c3ccccc3c3ccccc32)c1): 23.7 ns

CC1=CC(C)=[N+]2C1=Cc1c3ccccc3c(C#Cc3cccs3)n1[B-]2(F)F
fluorescence lifetime (in CCCCCC): 4.69 ns
fluorescence lifetime (in CCCCCCCCO): 3.74 ns
fluorescence lifetime (in CCOC(C)=O): 4.07 ns
fluorescence lifetime (in CN(C)C=O): 3.46 ns

CN(C)c1ccc2ccc3oc(=O)c(-c4ccccc4)nc3c2c1
fluorescence lifetime (in c1ccccc1): 7.2 ns

Cc1ccccc1C1=C2C=c3c(oc4ccc(F)cc34)=[N+]2[B-](F)(F)n2c1cc1c3cc(F)ccc3oc12
fluorescence lifetime (in C1CCCCC1): 4.02 ns
fluorescence lifetime (in CCOC(C)=O): 4.22 ns
fluorescence lifetime (in CO): 4.3 ns

COC(=O)C(NC(=O)OC(C)(C)C)c1ccc2oc(-c3ccc(N(C)C)cc3OC)nc2c1 (stereo not given)
fluorescence lifetime (in CC1CCCCC1): 1.25 ns
fluorescence lifetime (in CC#N): 1.24 ns
fluorescence lifetime (in CO): 1.32 ns

CCCCNc1nc(/C=C/c2ccccc2)[n+]([O-])c2c1CCCC2
fluorescence lifetime (in ClCCl): 8.9 ns

COc1ccc(-c2c3ccccc3c(-c3ccc(OC)cc3)c3cc4ccccc4cc23)cc1
fluorescence lifetime (in ClCCl): 12.1 ns

CN(C)CCCN1c2ccccc2CCc2ccc(Cl)cc21
fluorescence lifetime (in CC#N): 0.22 ns
fluorescence lifetime (in CO): 0.19 ns
fluorescence lifetime (in O): 0.18 ns
